# Earlier results in patent US20240277751A1, “CRYSTALLINE POLYMORPHIC FORMS OF STING AGONISTS ASSOCIATED WITH METAL IONS CAPABLE OF MODULATING AN IMMUNE RESPONSE” (priority 2020, published 2024).
smiles,measurement,setting,value
Nc1ncnc2c1ncn2[C@@H]1O[C@@H]2COP(=O)([S-])O[C@@H]3[C@H](O)[C@@H](COP([O-])(=S)O[C@H]2[C@H]1O)O[C@H]3n1cnc2c(N)ncnc21.[Na+].[Na+] (some centres unmarked) [MIW815],fraction entered the systemic circulation,"1 hour after intratumor injection, phase I clinical trial",over 98%
same,half-life in serum,in vivo,~16 min
